Reference: patent US10441594B2, “Methods of making quinoa leachates and uses thereof” (priority 2013, dated 2019)

Key:
[1] = system: diet-induced obese, hyperglycemic mice; details: 10 mg/kg body weight for 13 wk; cited from earlier work
[2] = system: diet-induced obese, hyperglycemic mice (C57BL/6J); assay: Acute hypoglycemic study in diet-induced obese mice (fasting blood glucose); assay type: in vivo; details: 300 mg/kg oral
Method: An acute hypoglycemic study in diet-induced obese mice was performed as described previously (Cheng et al., Food Chem 135: 2994-3002, 2012, incorporated herein by reference). Briefly, five-week-old male C57Bl/6J mice (Jackson Labs), acclimated for 1 week with ad libitum access to chow (Purina, No. 5014) and water, and maintained on a very high-fat diet (VHFD) containing 60% fat-derived calories (D12492; Research Diets) for an additional 15 weeks to induce obesity, insulin resistance, and hyperglycemia. Food intake and body weight were monitored weekly. Following a 4-hour fasting period, fasting blood glucose (FBG) was measured using an AlphaTRAK® handheld glucometer (Abbott Labs, Inc.), and mice were randomly divided into FBG-balanced experimental groups.
Quinoa leachate (QL) was formulated in 70% Labrasol® (Gattefossé Corp., Paramus, N.J.). The biological activity of QL was tested using an oral ingestion of 0.25 ml per 50 g body weight of vehicle (70% Labrasol®) or QL (250 and 500 mg/kg) (n=7). Metformin® (300 mg/kg, dissolved in water) was administered as a positive control. FBG was reassessed 4 hours post-treatment. Mean FBG values before and after treatment were calculated for each group and compared using paired t-tests in Microsoft Excel. Additionally, final % FBG (final FBG/initial FBG×100) of each mouse was calculated 4 hours post-treatment. […]

Row | SMILES | blood glucose levels [1] | reduction of adiposity compared with control [1] [%] | hypoglycemic effect compared with control (1-way ANOVA, Dunnett's post hoc test) ([2]; 4 hours) | FBG levels 4 hours after oral administration versus before treatment (paired t-test) ([2]; positive control)
1 | CC(C)(O)CC[C@@H](O)[C@](C)(O)[C@H]1CC[C@@]2(O)C3=CC(=O)[C@@H]4C[C@@H](O)[C@@H](O)C[C@]4(C)[C@H]3CC[C@]12C [20-HE, 20-hydroxyecdysone] | significantly lowered blood glucose levels | 41 | – | –
2 | CN(C)C(=N)N=C(N)N [Metformin] | – | – | significant hypoglycemic effects compared with control | significantly lowered FBG levels
